{"source": "patent US20170333407A1", "about": "“METHOD FOR TREATING UNDERACTIVE BLADDER SYNDROME” (William Beaumont Hospital, priority 2014, published 2017)", "test_system": "patients with symptoms of UAB syndrome", "test": "Treatment of patients with symptoms of UAB syndrome with cevimeline (Qmax, PVR, UAB symptom questionnaire)", "type": "in vivo, human", "conditions": "for UAB Score: five-question UAB symptom questionnaire, lower score = improvement; for UAB Score / PVR (residual urine volume in the bladder) / Qmax (maximum urine flow rate): individual patients", "description": "Six different patients who each suffered from one or more medical conditions and symptoms of UAB syndrome were examined. UAB symptom-related data obtained from the patients before and after treatment with cevimeline was obtained from some of the patients and is presented below in Tables I-IV. […] Quantitative measurements were made to determine maximum urine flow rate Qmax (expressed in mL/s) and residual urine volume in the bladder PVR (expressed in mL). Qualitative measurements were obtained based on the patient's perceived UAB symptoms. A lower UAB score indicates an improvement in UAB symptoms. […] 4 and 6 after one week of treatment with cevimeline. Cevimeline was administered to each patient in 30 mg doses, three times per day. […] Specifically, the volume of residual urine in the bladder of patient 6 decreased from a baseline volume of 120 mL to a treated volume of 28 mL. To assess for qualitative improvement of UAB symptoms upon administration of cevimeline, patients were surveyed using a five-question UAB symptom questionnaire. The UAB score was then tallied from the patient responses. […] 4 and 6 after a two-week treatment with cevimeline. Cevimeline was administered to each patient in 60 mg doses, three times per day.", "key": {"[1]": {"conditions": "after one week of treatment with cevimeline 30 mg tid"}, "[2]": {"conditions": "after two weeks of treatment with cevimeline 60 mg tid"}}, "note": "Several values for one entry are separate records, joined by “and”; a condition that tells them apart may be missing. Equal values may be shown once. Entries after “also recorded” stand apart in the source; their conditions may differ.", "data": [{"smiles": "C[C@@H]1O[C@@]2(CS1)CN1CCC2CC1", "note": "[cevimeline, (2R,5R)-2-methylspiro[1,3-oxathiolane-5,3′-1-azabicyclo[2.2.2]octane]]", "values": [{"measurement": "UAB Score", "setting": "[1]", "result": "12 and 9 (2×)"}, {"measurement": "PVR (residual urine volume in the bladder)", "setting": "[1]", "result": "28 mL and 240 mL"}, {"measurement": "Qmax (maximum urine flow rate)", "setting": "[1]", "result": "2.9 mL/s and 3 mL/s"}, {"measurement": "improvement in UAB symptoms (in words)", "setting": "after one week, 30 mg three times per day, patient 4 and patient 6", "result": "did not demonstrate any quantitative or qualitative improvement; also recorded: did show quantitative improvement"}, {"measurement": "UAB Score", "setting": "[2]", "result": 7}, {"measurement": "PVR (residual urine volume in the bladder)", "setting": "[2]", "result": "92 mL and 69 mL"}, {"measurement": "Qmax (maximum urine flow rate)", "setting": "[2]", "result": "9.5 mL/s and 9.9 mL/s"}, {"measurement": "improvement of UAB syndrome-related symptoms (in words)", "setting": "after two-week treatment, 60 mg three times per day, patient 4 and patient 6", "result": "demonstrated both quantitative and qualitative improvements"}, {"measurement": "overall effect on symptoms related to UAB syndrome (in words)", "setting": "initial data from preliminary studies", "result": "effective at treating the symptoms related to UAB syndrome"}]}]}
